Source: patent publication US4898861A, “Method for inhibiting the proliferation of tumor cells” (Hoffmann-La Roche Inc., priority 1988, dated 1990)
Read-outs that look alike come from different tables or passages of the source.

Legend:
[1] = target: T1, peripheral binding site on thymoma cells (Mus musculus, UniProt P50637); assay: Binding of tritiated 7-chloro-5-(4-chlorophenyl)-1,3-dihydro-1-methyl-2H-1,4-benzodiazepin-2-one to thymoma cells (saturation, association, dissociation)
T1 construct: host or cells: AKR mouse thymoma line BW 5147.6.1.4.Oua^r.1; (washed cells in BGS buffer)
Description: Thymoma cells, AKR mouse thymoma line, BW 5147.6.1.4.Oua^r.1.(Cell Distribution Center, Salk Institute, San Diego, Calif.), were grown in Iscove's Modified Dulbecco's Medium (IMDM) containing 5 percent fetal calf serum, collected by centrifugation at 100×g and washed in Balanced Glucose Salt (BGS) buffer, the composition of which is: KCl, 5.0 mM; NaCl, 120.0 mM; Na2 HPO4, 5.0 mM; Tris, 5.0 mM; CaCl2, 0.6 mM; MgSO4, 1.0 mM and glucose, 5.5 mM with a final pH of 7.4. Incubation and binding of tritiated 7-chloro-5-(4-chlorophenyl)-1,3-dihydro-1-methyl-2H-1,4-benzodiazepin-2-one to thymoma cells was carried out in BGS buffer at 0° C. for 40 minutes with the indicated concentrations of labeled ligand. To assay the binding, the rapid filtration method was utilized as outlined in the article of Taniguchi et al., Life Science, 27, 171-178 (1980) and 10 μM of unlabeled diazepam was used as the competitive inhibitor of binding to determine the nonspecific binding. A Saturation and Scratchard plot of the binding data using least square fit to define the regression line (r=0.97) was utilized (FIG. 1 and Insert).

[2] = system: DS 19 Friend erythroleukemia cell line (FEL); assay: Induction of differentiation of FEL cells (hemoglobin synthesis, benzidine staining); type: cell-based, mouse; conditions: for EC50 / EC20 / EC10: Mus musculus, 120 h, 5 days; for EC50: read-out: ED50 (concentration required to induce 50% of the FEL cells); for EC20: read-out: ED20 (concentration required to induce 20% of the FEL cells); for EC10: read-out: ED10 (concentration required to induce 10% of the FEL cells)
Description: A DS 19 Friend erythroleukemia cell line (FEL) was utilized as the model for studying the effects of various benzodiazepines on cellular differentiation. The Friend lines were derived from mouse (DBA/2) spleen cells infected by the Friend virus complex. The FEL cells are a widely used model system for studying differentiation. […] The protocol utilized consisted of the benzidine staining method. Cells were seeded at 1×10^4 ml and incubated with inducers in Coster Culture Clusters ([…]) for 5 days. On the 5th day, two hundred (200) μl aliquots of cells were mixed with 100 μl of 0.2% benzidine dihydrochloride in 0.5N acetic acid with 1% of 30% H2 O2. Cells that stained blue were scored in a hemacytometer as a % of total cell number.
(§1) Of twenty five (25) of the benzodiazepines tested it was observed that sixteen induced differentiation (weakly to strongly active) in a concentration-dependent manner. The concentration of each compound required to induce 50%, 20% or 10% of the FEL cells along with the half-maximal concentrations for each compound required to inhibit 50% of the binding of 7-chloro-5-(4-chlorophenyl)-1,3-dihydro-1-methyl-2H-1,4-benzodiazepine-2-one to the FEL cells (IC50) is listed in the following table: […]

[3] = target: T2, peripheral-type benzodiazepine sites on FEL cells (Mus musculus, UniProt P50637); assay: Inhibition of binding of 7-chloro-5-(4-chlorophenyl)-1,3-dihydro-1-methyl-2H-1,4-benzodiazepine-2-one to FEL cells
T2 construct: endogenous in cells; host or cells: DS 19 Friend erythroleukemia cell line (FEL)
Description: as §1

[4] = system: Swiss 3T3 cells; conditions: Clarke and Ryan, Nature 287, 160-161 (1980), read-out: ED50 (inhibition of proliferation); cited from earlier work
[5] = target: T1, peripheral binding site on thymoma cells; assay: Inhibition of tritiated diazepam binding to thymoma cells
[6] = FEL cells, compounds 1-12, read-out: IC50 (inhibition of binding to FEL cells)
[7] = stereoisomers, equivalent IC50's, read-out: IC50
[8] = FEL cells, compounds 13-16, in μM, read-out: IC50 (inhibition of binding to FEL cells)

T2 sequence (P50637 whole entry): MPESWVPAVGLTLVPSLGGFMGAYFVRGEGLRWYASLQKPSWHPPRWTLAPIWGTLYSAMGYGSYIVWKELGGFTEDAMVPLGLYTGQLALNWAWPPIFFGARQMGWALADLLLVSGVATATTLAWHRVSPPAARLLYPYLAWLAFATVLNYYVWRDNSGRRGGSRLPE
T1 sequence (P50637 whole entry): as above

Structure (SMILES) | EC50 [2] [nM] | IC50 [3, 6] [µM] | EC20 [2] [nM] | also measured
CN1C(=O)CN=C(c2ccc(Cl)cc2)c2cc(Cl)ccc21 [7-chloro-5-(4-chlorophenyl)-1,3-dihydro-1-methyl-2H-1,4-benzodiazepin-2-one] | – | – | – | Kd [1]: 4.4 ± 1.1 nM; time of incubation to reach binding plateau ([1]; 0° C.): 30 min; maximum amount of ligand bound (Bmax) ([1]; saturation plot, BGS buffer, 0° C., 40 minutes, mean±s.e., n=5): 477±98 fmoles per 10^6 cells
C[C@@H]1N=C(c2ccccc2F)c2cc([N+](=O)[O-])ccc2N(C)C1=O [Compound 1, (+)-5-(2-fluorophenyl)-1,3-dihydro-1,3-dimethyl-7-nitro-2H--1,4-benzodiazepin-2-one] | 9000 | 1.1 | – | induction of differentiation (in words) [2]: most potent inducer tested; IC50 [3, 7]: ~1 µM
CN1C(=O)CN=C(c2ccc(O)cc2)c2cc(Cl)ccc21 [Compound 2, 7-chloro-1,3-dihydro-5-(4-hydroxyphenyl)-1-methyl-2H--1,4-benzodiazepin-2-one] | 20000 | 0.1 | – | –
COc1ccc(C2=NCC(=O)N(C)c3ccc(Cl)cc32)cc1 [Compound 3, 7-chloro-5-(4-methoxyphenyl)-1-methyl-3H--1,4-benzodiazepin-2-one] | 33000 | 0.015 | – | –
CN1C(=O)CN=C(c2ccccc2)c2cc(Cl)ccc21 [Compound 4, diazepam, reference compound] | 55000 | – | – | IC50 [4]: ~30000 nM; IC50 ([3]; IC50 (inhibition of binding to FEL cells), FEL cells, compounds 1-12): 0.079 µM
CN1C(=O)C(O)N=C(c2ccccc2)c2cc(Cl)ccc21 (stereo not drawn) [Compound 5, 7-chloro-1,3-dihydro-3-hydroxy-1-methyl-5-phenyl-2H--1,4-benzodiazepin-2-one] | 80000 | 0.236 | – | –
CN1C(=O)CN=C(c2ccccc2)c2ccccc21 [Compound 6, 1,3-dihydro-1-methyl-5-phenyl-2H--1,4-benzodiazepin-2-one] | 80000 | 0.704 | – | –
CN1C(=O)CN=C(c2ccc(Cl)cc2)c2cc(F)ccc21 [Compound 7, 5-(4-chlorophenyl)-7-fluoro-1-methyl-3H--1,4-benzodiazepin-2(1H)--one] | – | 0.013 | 34000 | –
CN1C(=O)CN=C(c2ccc(Cl)cc2)c2ccccc21 [Compound 8, 5-(4-chlorophenyl)-1-methyl-3H--1,4-benzodiazepin-2(1H)--one] | – | 0.054 | 30000 | –
C[C@H]1N=C(c2ccccc2F)c2cc([N+](=O)[O-])ccc2N(C)C1=O [Compound 9, (-)-5-(2-fluorophenyl)-1,3-dihydro-1,3-dimethyl-7-nitro-2H--1,4-benzodiazepin-2-one] | – | 1.04 | 86000 | induction of differentiation (in words) [2]: moderately active; IC50 [3, 7]: ~1 µM
CN1C(=O)CN=C(c2ccc(Cl)cc2)c2cc(Cl)ccc21 [Compound 10, 7-chloro-5-(4-chlorophenyl)-1,3-dihydro-1-methyl-2H--1,4-benzodiazepin-2-one] | – | 0.006 | 28000 | inhibition of tritiated diazepam binding ([5]; 200 nM unlabeled compound): completely inhibit the binding of tritiated diazepam
CN1C(=O)C(O)N=C(c2ccc(Cl)cc2)c2cc(Cl)ccc21 (stereo not drawn) [Compound 11, 7-chloro-5-(4-chlorophenyl)-3-hydroxy-1,3-dihydro-1-methyl-2H--1,4-benzodiazepin-2-one] | – | 0.02 | 45000 | –
CN1C(=O)CN=C(c2ccc(F)cc2)c2ccccc21 [Compound 12, 1-methyl-5-(4-fluorophenyl)-3H--1,4-benzodiazepin-2(1H)--one] | – | 0.327 | 100000 | –
CN1C(=O)CN=C(c2ccccc2F)c2cc([N+](=O)[O-])ccc21 [Compound 13, 5-(2-fluorophenyl)-1,3-dihydro-1-methyl-7-nitro-2H--1,4-benzodiazepin-2-one] | – | – | – | EC10 [2]: 32000 nM; IC50 [3, 8]: 0.08 µM
CN1C(=O)CN=C(c2ccc(Cl)cc2)c2cc([N+](=O)[O-])ccc21 [Compound 14, 5-(4-chlorophenyl)-1-methyl-7-nitro-3H--1,4-benzodiazepin-2(1H)--one] | – | – | – | EC10 [2]: 60000 nM; IC50 [3, 8]: 0.034 µM
CN1C(=O)CN=C(c2ccccc2Cl)c2ccccc21 [Compound 15, 5-(2-chlorophenyl)-1-methyl-3H--1,4-benzodiazepin-2(1H)--one] | – | – | – | EC10 [2]: 60000 nM; IC50 [3, 8]: 0.175 µM
CN1C(=O)CN=C(c2ccccc2Cl)c2cc(Cl)ccc21 [Compound 16, 7-chloro-5-(2-chlorophenyl)-1,3-dihydro-1-methyl-2H--1,4-benzodiazepin-2-one] | – | – | – | EC10 [2]: 60000 nM; IC50 [3, 8]: 0.011 µM
O=C1CN=C(c2ccccc2Cl)c2cc([N+](=O)[O-])ccc2N1 [clonazepam, reference compound] | – | – | – | inhibition of tritiated diazepam binding ([5]; 10 μM final concentration): did not inhibit diazepam binding
